Reference: patent US9695154B2, “Heteroaryl inhibitors of sumo activating enzyme” (MILLENNIUM PHARMACEUTICALS, INC., priority 2013, dated 2017)

Molecular target: T1, recombinant human SAE enzyme (Homo sapiens, UniProt Q9UBT2)
T1 sequence (Q9UBT2 1-640): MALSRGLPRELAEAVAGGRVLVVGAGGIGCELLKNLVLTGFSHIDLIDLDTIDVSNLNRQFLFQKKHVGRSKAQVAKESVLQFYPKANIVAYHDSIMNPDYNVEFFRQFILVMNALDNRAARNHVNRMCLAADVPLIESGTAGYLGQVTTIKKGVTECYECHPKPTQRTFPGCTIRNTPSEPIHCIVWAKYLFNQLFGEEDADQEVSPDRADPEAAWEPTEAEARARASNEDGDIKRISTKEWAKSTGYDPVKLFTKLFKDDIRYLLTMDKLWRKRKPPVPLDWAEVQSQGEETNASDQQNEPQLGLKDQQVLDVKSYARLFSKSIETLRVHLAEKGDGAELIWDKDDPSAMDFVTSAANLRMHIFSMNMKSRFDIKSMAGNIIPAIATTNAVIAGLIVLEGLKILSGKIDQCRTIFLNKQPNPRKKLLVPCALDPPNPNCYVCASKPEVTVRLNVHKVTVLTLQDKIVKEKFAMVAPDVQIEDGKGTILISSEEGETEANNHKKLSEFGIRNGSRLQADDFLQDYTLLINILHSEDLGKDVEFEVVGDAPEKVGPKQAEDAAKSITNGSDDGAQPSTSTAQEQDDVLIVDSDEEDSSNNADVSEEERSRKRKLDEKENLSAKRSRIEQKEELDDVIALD
T1 sequence (Q9UBE0 1-346 partner): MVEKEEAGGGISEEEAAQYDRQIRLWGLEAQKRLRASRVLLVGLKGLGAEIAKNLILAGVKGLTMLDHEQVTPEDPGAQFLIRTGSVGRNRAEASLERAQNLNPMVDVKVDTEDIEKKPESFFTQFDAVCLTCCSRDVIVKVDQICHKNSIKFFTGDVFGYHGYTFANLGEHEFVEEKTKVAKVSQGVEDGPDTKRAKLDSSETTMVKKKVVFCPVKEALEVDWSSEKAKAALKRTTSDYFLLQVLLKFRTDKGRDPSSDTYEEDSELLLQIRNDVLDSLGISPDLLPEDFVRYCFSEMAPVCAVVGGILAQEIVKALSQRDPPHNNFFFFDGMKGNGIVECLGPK
Test: SAE HTRF Enzyme Assay
Format: biochemical
Settings: for IC50: class symbols A-C; for inhibition at 0.111 µM: compound concentration 0.111 μM, read-out: Percent Inhibition
Summary of the method: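 SAE 0.11 nM; ATP 0.5 μM; Sumo-Flag 0.125 μM; Ubc9-GST 0.01 μM; 250 μM GSH, 5 mM MgCl2, pH 7.5. 105 min, 24° C. EDTA/KF stop plus Eu/APC antibodies, 2 h, TR-FRET. % inhibition or IC50.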

| SMILES | IC50 | inhibition at 0.111 µM |
| --- | --- | --- |
| NS(=O)(=O)OC[C@H]1C[C@@H](Nc2ncnc(Cl)c2C(=O)c2ccn(Cc3cccc(Cl)c3)n2)C[C@@H]1O [Compound I-54, {(1R,2S,4R)-4-[(6-Chloro-5-{[1-(3-chlorobenzyl)-1H-pyrazol-3-yl]carbonyl}pyrimidin-4-yl)amino]-2-hydroxycyclopentyl}methyl sulfamate] | 10 to 100 nM | 63% |
| CC1CC1Cn1ccc(C(=O)c2cncnc2N[C@@H]2C[C@H](COS(N)(=O)=O)[C@@H](O)C2)n1 (stereo partly drawn) [Compound I-55, [(1R,2S,4R)-hydroxy-4-{[5-({1-[((1S,2S)-2-methylcyclopropyl)methyl]-1H-pyrazol-3-yl}carbonyl)pyrimidin-4-yl]amino}cyclopentyl]methyl sulfamate and [(1R,2S,4R)-2-hydroxy-4-{[5-({1-[((1R,2R)-2-methylcyclopropyl)methyl]-1H-pyrazol-3-yl}carbonyl)pyrimidin-4-yl]amino}cyclopentyl]methyl sulfamate] | 10 to 100 nM | 58% |
| NS(=O)(=O)OC[C@H]1C[C@@H](Nc2ccncc2C(=O)c2ccn(Cc3ccccc3)n2)[C@H](O)[C@@H]1O [Compound I-56, [(1R,2R,3S,4R)-4-({3-[(1-Benzyl-1H-pyrazol-3-yl)carbonyl]pyridin-4-yl}amino)-2,3-dihydroxycyclopentyl]methyl sulfamate] | < 10 nM | 100% |
| COc1cc(Cn2ccc(C(=O)c3cncnc3N[C@@H]3C[C@H](COS(N)(=O)=O)[C@@H](O)[C@@H]3F)c2)ccc1F [Compound I-57, {(1R,2R,3R,4R)-3-Fluoro-4-[(5-{[1-(4-fluoro-3-methoxybenzyl)-1H-pyrrol-3-yl]carbonyl}pyrimidin-4-yl)amino]-2-hydroxycyclopentyl}methyl sulfamate] | < 10 nM | 98% |
| NS(=O)(=O)OC[C@H]1C[C@@H](Nc2ncncc2C(=O)c2ccn(Cc3ccc(Cl)c(Cl)c3)n2)C[C@@H]1O [Compound I-58, {(1R,2S,4R)-4-[(5-{[1-(3,4-dichlorobenzyl)-1H-pyrazol-3-yl]carbonyl}pyrimidin-4-yl)amino]-2-hydroxycyclopentyl}methyl sulfamate] | < 10 nM | 88% |
| NS(=O)(=O)OC[C@H]1C[C@@H](Nc2ncncc2C(=O)c2ccn(CC#CCC3CCCC3)n2)C[C@@H]1O [Compound I-59, {(1R,2S,4R)-4-[(5-{[1-(4-cyclopentylbut-2-yn-1-yl)-1H-pyrazol-3-yl]carbonyl}pyrimidin-4-yl)amino]-2-hydroxycyclopentyl}methyl sulfamate] | 10 to 100 nM | 70% |
| CC(C)(O)c1cccc(Cn2ccc(C(=O)c3cncnc3N[C@@H]3C[C@H](COS(N)(=O)=O)[C@@H](O)C3)n2)c1 [Compound I-60, [(1R,2S,4R)-2-hydroxy-4-{[5-({1-[3-(2-hydroxypropan-2-yl)benzyl]-1H-pyrazol-3-yl}carbonyl)pyrimidin-4-yl]amino}cyclopentyl]methyl sulfamate] | 10 to 100 nM | 91% |
| NS(=O)(=O)OC[C@H]1C[C@@H](Nc2ncncc2C(=O)c2cc(Cl)n(Cc3cccc(Cl)c3)c2)[C@@H](F)[C@@H]1O [Compound I-61] | < 10 nM | 99% |
| NS(=O)(=O)OC[C@H]1C[C@@H](Nc2ncncc2C(=O)c2ccn(Cc3ccc(F)cc3F)n2)C[C@@H]1O [Compound I-62, {(1R,2S,4R)-4-[(5-{[1-(2,4-difluorobenzyl)-1H-pyrazol-3-yl]carbonyl}pyrimidin-4-yl)amino]-2-hydroxycyclopentyl}methyl sulfamate] | < 10 nM | 96% |
| COc1ncccc1Cn1ccc(C(=O)c2cncnc2N[C@@H]2C[C@H](COS(N)(=O)=O)[C@@H](O)C2)n1 [Compound I-63, [(1R,2S,4R)-2-hydroxy-4-{[5-({1-[(2-methoxypyridin-3-yl)methyl]-1H-pyrazol-3-yl}carbonyl)pyrimidin-4-yl]amino}cyclopentyl]methyl sulfamate] | 10 to 100 nM | 87% |
| CC(C)(C)c1cccc(Cn2ccc(C(=O)c3cncnc3N[C@@H]3C[C@H](COS(N)(=O)=O)[C@@H](O)C3)n2)c1 [Compound I-64, {(1R,2S,4R)-4-[(5-{[1-(3--tert-butylbenzyl)-1H-pyrazol-3-yl]carbonyl}pyrimidin-4-yl)amino]-2-hydroxycyclopentyl}methyl sulfamate] | 10 to 100 nM | 91% |
| Cc1cc(C(=O)c2cncnc2N[C@@H]2C[C@H](COS(N)(=O)=O)[C@@H](O)C2)nn1Cc1ccccc1 [Compound I-66, [(1R,2S,4R)-4-({5-[(1-benzyl-5-methyl-1H-pyrazol-3-yl)carbonyl]pyrimidin-4-yl}amino)-2-hydroxycyclopentyl]methyl sulfamate] | < 10 nM | 98% |
| NS(=O)(=O)OC[C@H]1C[C@@H](Nc2ncncc2C(=O)c2ccn(Cc3cccc(NC(=O)CCl)c3)n2)[C@H](O)[C@@H]1O [Compound I-67, [(1R,2R,3S,4R)-4-({5-[(1-{3-[(chloroacetyl)amino]benzyl}-1H-pyrazol-3-yl)carbonyl]pyrimidin-4-yl}amino)-2,3-dihydroxycyclopentyl]methyl sulfamate] | < 10 nM | 94% |
| NS(=O)(=O)OC[C@H]1C[C@@H](Nc2ncncc2C(=O)c2ccn(Cc3cccc(I)c3)c2)C[C@@H]1O [Compound I-68, {(1R,2S,4R)-2-hydroxy-4-[(5-{[1-(3-iodobenzyl)-1H-pyrrol-3-yl]carbonyl}pyrimidin-4-yl)amino]cyclopentyl}methyl sulfamate] | < 10 nM | 99% |
| NS(=O)(=O)OC[C@H]1C[C@@H](Nc2ncncc2C(=O)c2ccn(Cc3ccc(C(F)(F)F)cc3C(F)(F)F)n2)C[C@@H]1O [Compound I-69, [(1R,2S,4R)-4-{[5-({1-[2,4-bis(trifluoromethyl)benzyl]-1H-pyrazol-3-yl}carbonyl)pyrimidin-4-yl]amino}-2-hydroxycyclopentyl]methyl sulfamate] | 100 to 1000 nM | 39% |
| NS(=O)(=O)OC[C@H]1C[C@@H](Nc2ncncc2C(=O)c2ccn(Cc3cc(Cl)ccn3)n2)[C@H](O)[C@@H]1O [Compound I-70, [(1R,2R,3S,4R)-4-{[5-({1-[(4-chloropyridin-2-yl)methyl]-1H-pyrazol-3-yl}carbonyl)pyrimidin-4-yI]amino}-2,3-dihydroxycyclopentyl]methyl sulfamate] | < 10 nM | 99% |
| Cc1cc(C(=O)c2cncnc2N[C@@H]2C[C@H](COS(N)(=O)=O)[C@@H](O)[C@@H]2F)cn1Cc1cccc(Br)c1 [Compound I-71, {(1R,2R,3R,4R)-4-[(5-{[1-(3-bromobenzyl)-5-methyl-1H-pyrrol-3-yl]carbonyl}pyrimidin-4-yl)amino]-3-fluoro-2-hydroxycyclopentyl}methyl sulfamate] | < 10 nM | 100% |
| NS(=O)(=O)OC[C@H]1C[C@@H](Nc2ncncc2C(=O)c2ccn(Cc3ccc(F)c(Br)c3)n2)C[C@@H]1O [Compound I-72, {(1R,2S,4R)-4-[(5-{[1-(3-bromo-4-fluorobenzyl)-1H-pyrazol-3-yl]carbonyl}pyrimidin-4-yl)amino]-2-hydroxycyclopentyl}methyl sulfamate] | < 10 nM | 100% |
| NS(=O)(=O)OC[C@H]1C[C@@H](Nc2ncncc2C(=O)c2ccn(Cc3cnc(C(F)(F)F)s3)c2)C[C@@H]1O [Compound I-73, [(1R,2S,4R)-2-hydroxy-4-({5-[(1-{[2-(trifluoromethyl)-1,3-thiazol-5-yl]methyl}-1H-pyrrol-3-yl)carbonyl]pyrimidin-4-yl}amino)cyclopentyl]methyl sulfamate] | < 10 nM | 94% |
| COC(C)(C)C#CCn1ccc(C(=O)c2cncnc2N[C@@H]2C[C@H](COS(N)(=O)=O)[C@@H](O)[C@@H]2F)c1 [Compound I-75, {(1R,2R,3R,4R)-3-fluoro-2-hydroxy-4-[(5-{[1-(4-methoxy-4-methylpent-2-yn-1-yl)-1H-pyrrol-3-yl]carbonyl}pyrimidin-4-yl)amino]cyclopentyl}methyl sulfamate] | 10 to 100 nM | 68% |
| CC(C)(c1ccccc1)n1ccc(C(=O)c2cncnc2N[C@@H]2C[C@H](COS(N)(=O)=O)[C@@H](O)C2)c1 [Compound I-76, {(1R,2S,4R)-2-hydroxy-4-[(5-{[1-(2-phenylpropan-2-yl)-1H-pyrrol-3-yl]carbonyl}pyrimidin-4-yl)amino]cyclopentyl}methyl sulfamate] | 10 to 100 nM | 80% |
